This passage reports viability, Activity and IC50 results from ChEMBL document CHEMBL4138148, “Discovery of novel pyrrolo-pyridine/pyrimidine derivatives bearing pyridazinone moiety as c-Met kinase inhibitors” (Eur J Med Chem, 2017).

For orientation: pIC50 means the IC50 on a negative log10 scale, so that one unit is a factor of ten.

The subject of experiment [1] is HepG2. The experiment is described as follows: Induction of apoptosis in human HepG2 cells assessed as viable cells at 1.3 uM by Annexin V-FITC/propidium iodide staining based flow cytometry (reference value: 87.54%). In kind it is functional. The note with it: read-out: Activity. (In flow cytometry, cells or beads pass a laser one at a time.)
The subject of experiment [2] is HepG2. The experiment is described as follows: Induction of apoptosis in human HepG2 cells assessed as formation of chromatin condensation at 1.3 uM by acridine orange dye based inverted fluorescence microscopy. In kind it is functional, cell-based.
Experiment [3] has as its system HepG2. The experiment is described as follows: Induction of apoptosis in human HepG2 cells assessed as late apoptotic cells at 1.3 uM by Annexin V-FITC/propidium iodide staining based flow cytometry (reference value: 6.07%). In kind it is functional.
Experiment [4] has as its system A549. The settings on record: Homo sapiens.
Description: (§1) Cytotoxicity against human A549 cells assessed as reduction in cell viability after 72 hrs by MTT assay
Experiment [5] concerns HepG2. The experiment is described as follows: cells. The settings on record: Homo sapiens, HepG2, 72 h.
Description: (§2) Cytotoxicity against human HepG2 cells assessed as reduction in cell viability after 72 hrs by MTT assay
Experiment [6] relates to HepG2. Put plainly: Induction of apoptosis in human HepG2 cells assessed as early apoptotic cells at 1.3 uM by Annexin V-FITC/propidium iodide staining based flow cytometry (reference value: 6.11%). The format is functional.
For experiment [7], the target named is T1, Receptor-type tyrosine-protein kinase FLT3 (Homo sapiens, UniProt P36888).
T1 sequence (P36888 whole entry): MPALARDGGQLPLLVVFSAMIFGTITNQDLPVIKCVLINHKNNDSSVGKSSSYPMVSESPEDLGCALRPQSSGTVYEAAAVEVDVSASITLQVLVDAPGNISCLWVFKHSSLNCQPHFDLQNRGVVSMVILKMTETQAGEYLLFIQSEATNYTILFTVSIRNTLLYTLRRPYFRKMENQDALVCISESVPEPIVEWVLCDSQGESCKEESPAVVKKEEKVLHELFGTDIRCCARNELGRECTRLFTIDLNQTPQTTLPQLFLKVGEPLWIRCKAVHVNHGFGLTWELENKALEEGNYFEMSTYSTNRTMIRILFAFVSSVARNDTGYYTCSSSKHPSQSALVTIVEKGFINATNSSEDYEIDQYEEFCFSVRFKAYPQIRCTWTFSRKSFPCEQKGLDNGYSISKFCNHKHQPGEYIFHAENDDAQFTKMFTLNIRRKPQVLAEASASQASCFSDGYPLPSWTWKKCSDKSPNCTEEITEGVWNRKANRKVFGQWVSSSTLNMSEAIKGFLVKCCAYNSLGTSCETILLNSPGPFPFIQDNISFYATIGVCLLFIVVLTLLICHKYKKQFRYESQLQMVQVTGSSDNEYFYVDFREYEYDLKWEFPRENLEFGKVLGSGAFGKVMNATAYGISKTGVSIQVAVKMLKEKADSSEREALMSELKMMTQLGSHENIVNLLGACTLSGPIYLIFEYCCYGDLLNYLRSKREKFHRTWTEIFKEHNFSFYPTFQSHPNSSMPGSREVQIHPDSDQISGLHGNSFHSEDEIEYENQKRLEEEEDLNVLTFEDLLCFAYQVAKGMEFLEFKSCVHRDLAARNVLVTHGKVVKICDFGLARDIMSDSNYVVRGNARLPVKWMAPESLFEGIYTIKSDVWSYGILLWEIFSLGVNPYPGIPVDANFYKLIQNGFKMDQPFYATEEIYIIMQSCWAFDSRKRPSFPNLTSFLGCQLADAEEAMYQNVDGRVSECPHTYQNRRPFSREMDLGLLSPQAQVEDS
The experiment is described as follows: Inhibition of FLT3 (unknown origin) using FAM-labeled peptide as substrate preincubated for 10 mins followed by substrate addition by mobility shift assay.

In experiment [8] the test system is HepG2. Put plainly: Induction of apoptosis in human HepG2 cells assessed as formation of DNA fragments at 1.3 uM by acridine orange dye based inverted fluorescence microscopy. In kind it is functional, cell-based.
For experiment [9], the system named is PC-3. The settings on record: Homo sapiens.
Description: (§3) Cytotoxicity against human PC3 cells assessed as reduction in cell viability after 72 hrs by MTT assay
The target of experiment [10] is Vascular endothelial growth factor receptor 2 (Homo sapiens, UniProt P35968). Put plainly: Inhibition of VEGFR2 (unknown origin) using FAM-labeled peptide as substrate preincubated for 10 mins followed by substrate addition by mobility shift assay.
Experiment [11] deals with PC-3. Put plainly: cells. The settings on record: Homo sapiens, PC-3, 72 h.
Description: as §3
For experiment [12], the system named is MCF7. The experiment is described as follows: cells. The note with it: Homo sapiens, MCF7, 72 h.
Description: (§4) Cytotoxicity against human MCF7 cells assessed as reduction in cell viability after 72 hrs by MTT assay
Experiment [13] has as its system HepG2. The note with it: Homo sapiens.
Description: as §2
Experiment [14] concerns HepG2. The experiment is described as follows: Induction of apoptosis in human HepG2 cells assessed as formation of cell shrinkage at 1.3 uM by acridine orange dye based inverted fluorescence microscopy. In kind it is functional.
The target in experiment [15] is Mast/stem cell growth factor receptor Kit (Homo sapiens, UniProt P10721). The experiment is described as follows: Inhibition of cKIT (unknown origin) using FAM-labeled peptide as substrate preincubated for 10 mins followed by substrate addition by mobility shift assay.
For experiment [16], the system named is HepG2. Put plainly: Induction of apoptosis in human HepG2 cells assessed as necrotic cells at 1.3 uM by Annexin V-FITC/propidium iodide staining based flow cytometry (reference value: 0.28%). The format is functional.
In experiment [17] the target is Epidermal growth factor receptor (Homo sapiens, UniProt P00533). Put plainly: Inhibition of EGFR (unknown origin) using FAM-labeled peptide as substrate preincubated for 10 mins followed by substrate addition by mobility shift assay.
For experiment [18], the system named is A549. The experiment is described as follows: cells. The note with it: Homo sapiens, A549, 72 h.
Description: as §1
The subject of experiment [19] is MCF7. The note with it: Homo sapiens.
Description: as §4
The target in experiment [20] is Hepatocyte growth factor receptor (Homo sapiens, UniProt P08581). The experiment is described as follows: Inhibition of c-MET (unknown origin) using FAM-labeled peptide as substrate preincubated for 10 mins followed by substrate addition by mobility shift assay.
Experiment [21] concerns HepG2. The experiment is described as follows: Induction of apoptosis in human HepG2 cells assessed as necrotic cells at 2.8 uM by Annexin V-FITC/propidium iodide staining based flow cytometry (reference value: 0.28%). The format is functional.
For experiment [22], the system named is HepG2. The experiment is described as follows: Induction of apoptosis in human HepG2 cells assessed as early apoptotic cells at 2.8 uM by Annexin V-FITC/propidium iodide staining based flow cytometry (reference value: 6.11%). In kind it is functional.
Experiment [23] relates to HepG2. The experiment is described as follows: Induction of apoptosis in human HepG2 cells assessed as late apoptotic cells at 2.8 uM by Annexin V-FITC/propidium iodide staining based flow cytometry (reference value: 6.07%). In kind it is functional.
The test system of experiment [24] is HepG2. The experiment is described as follows: Induction of apoptosis in human HepG2 cells assessed as viable cells at 2.8 uM by Annexin V-FITC/propidium iodide staining based flow cytometry (reference value: 87.54%). The format is functional. The note with it: read-out: Activity.

SMILES strings stand for the structures. pIC50: −log10 of the molar value. Activity calls are given as the source filed them. No cut-off for these calls is given here.

Sequence of Hepatocyte growth factor receptor (P08581 whole entry): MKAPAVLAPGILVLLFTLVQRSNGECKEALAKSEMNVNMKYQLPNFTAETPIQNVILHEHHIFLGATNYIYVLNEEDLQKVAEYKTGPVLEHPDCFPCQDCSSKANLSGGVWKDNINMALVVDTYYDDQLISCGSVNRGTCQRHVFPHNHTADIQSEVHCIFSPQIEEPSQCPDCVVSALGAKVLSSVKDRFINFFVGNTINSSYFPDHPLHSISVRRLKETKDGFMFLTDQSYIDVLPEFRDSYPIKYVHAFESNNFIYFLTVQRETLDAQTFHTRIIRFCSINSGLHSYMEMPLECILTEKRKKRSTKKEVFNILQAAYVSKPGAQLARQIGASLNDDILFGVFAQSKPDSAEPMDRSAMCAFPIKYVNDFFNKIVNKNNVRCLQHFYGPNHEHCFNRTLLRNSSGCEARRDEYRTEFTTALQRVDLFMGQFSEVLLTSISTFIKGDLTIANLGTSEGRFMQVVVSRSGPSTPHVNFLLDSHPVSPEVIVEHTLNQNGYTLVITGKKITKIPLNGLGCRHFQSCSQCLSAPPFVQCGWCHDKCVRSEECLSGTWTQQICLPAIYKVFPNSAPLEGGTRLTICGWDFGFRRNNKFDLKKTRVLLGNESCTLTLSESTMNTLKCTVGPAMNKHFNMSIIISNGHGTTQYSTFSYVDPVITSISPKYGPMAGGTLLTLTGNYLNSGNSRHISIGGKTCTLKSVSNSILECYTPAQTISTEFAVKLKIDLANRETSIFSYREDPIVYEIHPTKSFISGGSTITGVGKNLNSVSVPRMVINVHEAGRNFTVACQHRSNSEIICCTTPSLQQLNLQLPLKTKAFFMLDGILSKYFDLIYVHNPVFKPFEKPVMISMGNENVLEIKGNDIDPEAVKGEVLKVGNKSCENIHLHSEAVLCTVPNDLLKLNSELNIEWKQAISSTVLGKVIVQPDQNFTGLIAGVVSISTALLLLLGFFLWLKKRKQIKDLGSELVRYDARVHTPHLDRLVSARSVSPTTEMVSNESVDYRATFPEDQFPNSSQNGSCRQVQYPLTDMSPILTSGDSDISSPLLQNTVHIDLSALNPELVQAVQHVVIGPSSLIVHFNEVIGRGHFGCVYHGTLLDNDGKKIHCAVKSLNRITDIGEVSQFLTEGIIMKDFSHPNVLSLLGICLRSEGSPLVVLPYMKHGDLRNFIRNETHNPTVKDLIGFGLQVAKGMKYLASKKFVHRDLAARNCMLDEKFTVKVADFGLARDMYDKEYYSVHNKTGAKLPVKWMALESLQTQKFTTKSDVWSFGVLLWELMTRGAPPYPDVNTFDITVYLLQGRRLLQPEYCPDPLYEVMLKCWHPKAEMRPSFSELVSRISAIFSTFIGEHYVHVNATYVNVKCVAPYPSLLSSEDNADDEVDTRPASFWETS
Sequence of Mast/stem cell growth factor receptor Kit (P10721 whole entry): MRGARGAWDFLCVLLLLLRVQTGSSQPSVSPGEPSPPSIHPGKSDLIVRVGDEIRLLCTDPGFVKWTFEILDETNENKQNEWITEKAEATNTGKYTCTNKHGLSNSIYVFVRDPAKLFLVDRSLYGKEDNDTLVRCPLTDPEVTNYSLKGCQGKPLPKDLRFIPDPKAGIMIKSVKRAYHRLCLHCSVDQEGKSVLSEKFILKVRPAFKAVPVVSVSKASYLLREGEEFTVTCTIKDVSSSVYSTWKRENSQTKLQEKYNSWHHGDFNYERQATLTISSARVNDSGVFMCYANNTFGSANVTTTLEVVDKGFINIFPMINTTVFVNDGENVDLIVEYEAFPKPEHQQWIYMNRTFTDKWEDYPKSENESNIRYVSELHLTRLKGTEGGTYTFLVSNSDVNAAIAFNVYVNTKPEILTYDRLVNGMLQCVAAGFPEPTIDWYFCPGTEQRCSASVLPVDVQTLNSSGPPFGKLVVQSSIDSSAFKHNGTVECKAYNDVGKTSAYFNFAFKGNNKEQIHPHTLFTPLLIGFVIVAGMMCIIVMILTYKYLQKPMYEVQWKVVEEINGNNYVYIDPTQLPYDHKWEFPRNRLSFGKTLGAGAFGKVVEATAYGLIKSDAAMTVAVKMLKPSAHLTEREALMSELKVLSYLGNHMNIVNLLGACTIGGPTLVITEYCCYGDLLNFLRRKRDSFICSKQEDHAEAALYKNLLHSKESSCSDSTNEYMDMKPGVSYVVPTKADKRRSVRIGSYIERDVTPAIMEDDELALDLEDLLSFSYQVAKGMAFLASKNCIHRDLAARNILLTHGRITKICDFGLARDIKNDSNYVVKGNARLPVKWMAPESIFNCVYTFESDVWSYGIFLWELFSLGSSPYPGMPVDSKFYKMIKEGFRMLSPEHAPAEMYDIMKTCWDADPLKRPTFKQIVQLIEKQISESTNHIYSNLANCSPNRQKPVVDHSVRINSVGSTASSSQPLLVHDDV
Sequence of Epidermal growth factor receptor (P00533 whole entry): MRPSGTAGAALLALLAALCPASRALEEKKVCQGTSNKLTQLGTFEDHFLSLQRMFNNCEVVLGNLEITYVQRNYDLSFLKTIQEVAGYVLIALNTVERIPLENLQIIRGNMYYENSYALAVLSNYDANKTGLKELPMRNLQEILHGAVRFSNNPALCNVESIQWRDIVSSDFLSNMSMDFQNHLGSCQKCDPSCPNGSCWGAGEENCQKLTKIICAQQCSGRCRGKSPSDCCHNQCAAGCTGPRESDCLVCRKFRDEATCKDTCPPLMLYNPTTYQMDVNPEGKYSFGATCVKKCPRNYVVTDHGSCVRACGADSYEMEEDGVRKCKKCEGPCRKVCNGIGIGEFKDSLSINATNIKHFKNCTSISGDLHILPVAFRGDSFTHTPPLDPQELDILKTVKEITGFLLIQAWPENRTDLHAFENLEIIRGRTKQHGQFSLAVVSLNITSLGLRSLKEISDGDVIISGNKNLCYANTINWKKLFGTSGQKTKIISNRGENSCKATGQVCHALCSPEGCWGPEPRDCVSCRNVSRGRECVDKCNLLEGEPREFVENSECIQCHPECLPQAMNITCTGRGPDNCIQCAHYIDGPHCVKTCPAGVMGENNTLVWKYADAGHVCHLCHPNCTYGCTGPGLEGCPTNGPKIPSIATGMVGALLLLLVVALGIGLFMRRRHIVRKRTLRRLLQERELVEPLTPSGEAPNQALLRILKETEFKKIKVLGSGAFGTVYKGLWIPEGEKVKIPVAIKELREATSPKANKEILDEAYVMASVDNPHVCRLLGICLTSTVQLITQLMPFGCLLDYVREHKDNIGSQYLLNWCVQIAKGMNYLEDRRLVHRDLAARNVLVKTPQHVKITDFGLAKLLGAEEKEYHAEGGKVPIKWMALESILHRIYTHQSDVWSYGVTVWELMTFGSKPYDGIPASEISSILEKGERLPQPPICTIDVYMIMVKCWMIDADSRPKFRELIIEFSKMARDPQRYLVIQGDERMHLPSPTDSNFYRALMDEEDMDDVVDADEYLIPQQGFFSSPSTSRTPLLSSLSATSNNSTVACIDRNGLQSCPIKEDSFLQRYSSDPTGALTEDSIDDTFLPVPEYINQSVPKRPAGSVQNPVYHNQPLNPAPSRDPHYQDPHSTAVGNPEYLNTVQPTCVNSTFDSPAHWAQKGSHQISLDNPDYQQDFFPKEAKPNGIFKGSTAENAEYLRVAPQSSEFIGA
Sequence of Vascular endothelial growth factor receptor 2 (P35968 whole entry): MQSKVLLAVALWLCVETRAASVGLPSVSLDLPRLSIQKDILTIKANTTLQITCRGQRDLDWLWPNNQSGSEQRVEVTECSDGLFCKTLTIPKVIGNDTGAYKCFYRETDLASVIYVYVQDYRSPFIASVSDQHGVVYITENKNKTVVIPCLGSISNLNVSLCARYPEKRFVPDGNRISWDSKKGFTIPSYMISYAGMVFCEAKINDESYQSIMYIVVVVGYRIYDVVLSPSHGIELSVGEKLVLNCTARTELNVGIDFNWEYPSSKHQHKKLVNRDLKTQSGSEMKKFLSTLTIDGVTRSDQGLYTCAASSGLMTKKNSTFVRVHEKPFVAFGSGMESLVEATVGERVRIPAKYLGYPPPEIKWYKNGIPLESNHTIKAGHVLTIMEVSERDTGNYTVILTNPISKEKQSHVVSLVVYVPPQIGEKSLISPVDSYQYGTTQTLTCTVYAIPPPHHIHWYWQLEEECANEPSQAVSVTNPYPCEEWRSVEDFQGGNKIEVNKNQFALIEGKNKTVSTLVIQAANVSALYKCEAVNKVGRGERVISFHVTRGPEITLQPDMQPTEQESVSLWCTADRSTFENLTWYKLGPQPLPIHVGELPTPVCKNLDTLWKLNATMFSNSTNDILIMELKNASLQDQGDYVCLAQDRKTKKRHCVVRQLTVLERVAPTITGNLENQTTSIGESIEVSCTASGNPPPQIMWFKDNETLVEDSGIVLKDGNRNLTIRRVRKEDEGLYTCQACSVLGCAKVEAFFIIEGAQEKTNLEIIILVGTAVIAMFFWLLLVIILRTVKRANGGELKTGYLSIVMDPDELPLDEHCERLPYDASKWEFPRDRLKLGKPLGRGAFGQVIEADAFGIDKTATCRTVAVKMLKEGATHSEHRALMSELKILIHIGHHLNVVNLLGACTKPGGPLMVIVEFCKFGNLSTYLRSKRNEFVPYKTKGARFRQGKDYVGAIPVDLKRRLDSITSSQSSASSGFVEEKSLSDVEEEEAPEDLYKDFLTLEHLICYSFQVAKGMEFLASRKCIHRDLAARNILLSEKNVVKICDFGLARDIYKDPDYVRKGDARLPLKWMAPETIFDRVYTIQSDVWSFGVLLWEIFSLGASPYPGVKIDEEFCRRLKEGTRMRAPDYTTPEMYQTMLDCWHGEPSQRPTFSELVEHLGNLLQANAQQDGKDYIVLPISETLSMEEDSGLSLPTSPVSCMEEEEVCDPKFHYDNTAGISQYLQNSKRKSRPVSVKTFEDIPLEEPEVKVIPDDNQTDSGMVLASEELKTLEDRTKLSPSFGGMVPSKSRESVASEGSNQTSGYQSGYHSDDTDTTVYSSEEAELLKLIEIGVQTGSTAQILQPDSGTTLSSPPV

For `O=C(Nc1ccc(Oc2ccnc3[nH]ccc23)cc1)c1nn(-c2ccc(Cl)c(C(F)(F)F)c2)ccc1=O`, the viability at 1.3 µM in experiment [1] stood at 62.8%. The outcome in [2], in experiment [8] and in experiment [14] was Active. Further, the Activity in experiment [3] was 11.89%; in [4] it was “Dose-dependent effect”; in [6] it was 23.01%; in experiment [9], “Dose-dependent effect”; in experiment [13] it was “Dose-dependent effect”; in experiment [16], 2.31%. Further, the Activity result in experiment [19] was “Dose-dependent effect”. Further, the negative logarithm of the IC50 (pIC50) in experiment [5] is 5.88; in [7], 6.11; in experiment [10], 5.62; in experiment [11], 5.33; in [12], 5.20; in [15], 5.66. The negative logarithm of the IC50 (pIC50) in experiment [17] is less than 5.00; in experiment [18], 5.66; in experiment [20] it was 7.14.
Take `O=C(Nc1ccc(Oc2ccnc3[nH]ccc23)cc1)c1nn(-c2ccc(Cl)c(F)c2)ccc1=O`: the pIC50 in experiment [5] is 5.28; in experiment [11], 5.11; in experiment [12], 5.51; in experiment [18], 5.59; in experiment [20], 6.77.
In the case of `COc1cc2c(Oc3ccc(NC(=O)C4(C(=O)Nc5ccc(F)cc5)CC4)cc3F)ccnc2cc1OCCCN1CCOCC1` [FORETINIB], the Activity in [21] stood at 1.25%; in experiment [22], 16.09%; in experiment [23] it was 10.3%. The viability at 2.8 µM in [24] was found to be 72.4%.
As for `Cc1ccc(-n2nc(C(=O)Nc3ccc(Oc4ncnc5[nH]ccc45)cc3)c(C)cc2=O)cc1`, the pIC50 in [5] was 5.13; in [11], 5.02; in experiment [12] it was 5.44; in experiment [18], 5.19; in experiment [20] it was 4.57.
In the same order, the values of `Cc1cc(=O)n(-c2ccc(Br)cc2F)nc1C(=O)Nc1ccc(Oc2ncnc3[nH]ccc23)cc1` are 5.44, 5.56, 5.49, 5.42 and 4.68.
For the molecule `Cc1ccc(-n2nc(C(=O)Nc3ccc(Oc4ncnc5c4ccn5C)cc3)c(C)cc2=O)cc1`, the negative-log IC50 (pIC50) in experiment [5] was 4.47; in [11] it was less than 4.22; in [12] it was 4.97; in [18] it was less than 4.22.
`O=C(Nc1ccc(Oc2ccnc3[nH]ccc23)c(F)c1)c1nn(-c2ccc(Cl)cc2)ccc1=O`: the pIC50 in experiment [5] was less than 4.22; in [11], 4.37; in experiment [12], less than 4.22; in [18], less than 4.22.
`Cc1cc(=O)n(-c2ccccc2Cl)nc1C(=O)Nc1ccc(Oc2ncnc3c2ccn3C)cc1`: the pIC50 in experiment [5] was 4.95; in [11], 4.78; in experiment [12], 5.38; in experiment [18], 5.29.
Turning to `O=C(Nc1ccc(Oc2ccnc3[nH]ccc23)c(F)c1)c1nn(-c2ccc(Br)cc2)ccc1=O`, the pIC50 in experiment [5] was 4.17; in [11], 4.39; in experiment [12], 4.94; in experiment [18] it was less than 4.22.
Turning to `Cn1ccc2c(Oc3ccc(NC(=O)c4nn(-c5ccc(Br)cc5F)ccc4=O)cc3)ccnc21`, the pIC50 was 4.51 in [5], 4.69 in experiment [11], 4.70 in experiment [12] and 4.45 in [18].
For `COc1ccc(-n2ccc(=O)c(C(=O)Nc3ccc(Oc4ccnc5[nH]ccc45)cc3)n2)cc1`, the pIC50 is 4.29 in [5], less than 4.22 in [11], 4.66 in experiment [12] and 4.27 in experiment [18].
On the same counts, the results for `Cn1ccc2c(Oc3ccc(NC(=O)c4nn(-c5ccc(Br)cc5)ccc4=O)cc3)ccnc21` are 4.41, 4.64, 4.79 and 4.23.
